Reference: paper PMC9794587 (Frontiers in Pharmacology, 2022)
Where two headings read alike, the source gives them in different places. Where no end group is shown, it is not given here.

How the values were obtained:
[1] = rat, in vivo, im, t1/2
[2] = dog, in vivo, im, t1/2
[3] = mice, rats, rabbits, or dogs; ref Xu et al., 2020; cited from earlier work
Description: Previously, we established a solid-phase synthesis process for BPC157 ([Xue et al., 2004]) and verified its biological activity in rat gastric ulcer models and various skin wound models ([Huang et al., 2015]). […] For evaluating its future clinical use as a therapeutic drug and follow-up clinical trials, the present study was undertaken to evaluate the pharmacokinetics, tissue distribution, metabolis ...

[4] = can be stored at room temperature; ref Sikiric et al., 2018; cited from earlier work
Description: Body-protective compound (BPC) 157 is a peptide isolated from human gastric juice ([Sikiric et al., 1993]). BPC157 comprises 15 amino acids ([…]) and has a molecular weight of 1419 Da. […] BPC157 exerts a significant protective effect on various tissues and organs, such as th ...

in vivo [5] = details: both, Sprague-Dawley, rat, iv, t1/2
in vivo [6] = details: both, beagle, dog, t1/2
[7] = Pharmacokinetics of BPC157 in beagle dogs after intravenous and intramuscular administration (plasma)
[8] = Pharmacokinetics of BPC157 in SD rats after intravenous and intramuscular administration (plasma, LC-MS/MS); details: for bioavailability: in vivo
[9] = Radiometabolite profiling of [3H]BPC157 in rat plasma, urine, bile and feces (HPLC with radioactive detector, LC-MS/MS); assay type: in vivo, SD rats; details: for proportion of the bile sample radioactivity: single IM 100 µg/300 μCi/kg [3H]BPC157, mixed bile samples 0 to 72 h; for proportion of the total fecal radioactivity: single IM 100 µg/300 μCi/kg [3H]BPC157, feces 0 to 72 h; for proportion of the total radioactivity in urine: single IM 100 µg/300 μCi/kg [3H]BPC157, mixed urine samples 8 to 72 h
Experimental: Thirty intact SD rats, six JVC rats, and six BDC rats (half male and half female subjects) were injected intramuscularly with 100 µg/300 μCi/kg of [3H]BPC157. Whole blood and plasma samples of six JVC rats were collected at 0.05, 0.167, 0.5, 1, 2, 4, 8, 24, 48, and 72 h after administration (three males and three females at each time point) for the examination of radio pharmacokinetics of total plasma. Six intact SD rats were used for urinary, fecal, and biliary excretion studies. Urine and fecal samples were collected from each rat at 0–8, 8–24, 24–48, and 48–72 h. Animal carcasses were collected 72 h after administration. Bile excretion was studied in six SD rats with BDC. Bile, urine, and feces were collected 0–72 h after administration. Tissue distribution of BPC was studied in 24 intact SD rats. The rats were euthanized, and tissue samples (brain, heart, kidneys, liver, spleen, lung, stomach, intestine, muscle, grease, ovaries, womb, testicles, and thymus) were collected at 3 min, 10 min, 1 h, and 24 h after administration (three males and three females at each time point). Male SD rats were administered a single IM injection of blank solvent (excipient), and biological samples, including whole blood, plasma, urine, feces, and tissues, were collected for background control. The radioactivity of the plasma, tissue, bile, urinary, and fecal samples was analyzed using a liquid scintillation counter.
Plasma, bile, urine, and fecal samples of intact SD rats or BDC rats after a single administration of [3H]BPC157 were analyzed by HPLC combined with a low-energy radionuclide detection technique to obtain the radiometabolite profiles of [3H]BPC157. The structures of the main metabolites of [3H]BPC157 in rat plasma, bile, urine, and feces were analyzed and identified using LC-MS/MS and standard molecular weight comparison.

gastric juice = details: cited from earlier work
[10] = rat feces collected from 0 to 72 h after administration; details: SD rats, up to 72 h
[11] = rat plasma collected after a single IM injection of [3H]BPC157; details: SD rats, up to 24 h
[12] = rat bile collected from 0 to 72 h after administration (BDC rats); details: SD rats, up to 72 h
[13] = rat urine collected from 0 to 8 h and from 8 to 72 h after administration; details: SD rats, up to 72 h
[14] = both, beagle, dog, plasma, im, 6 μg/kg
[15] = both, beagle, dog, plasma, im, 30 μg/kg
[16] = both, beagle, dog, plasma, im, 150 μg/kg
[17] = both, beagle, dog, plasma, iv, 6 μg/kg
[18] = SD rats, single intravenous 20 μg/kg, plasma, LC-MS/MS, mean, n = 6
[19] = both, Sprague-Dawley, rat, plasma, im, 20 μg/kg
[20] = both, Sprague-Dawley, rat, plasma, im, 100 μg/kg
[21] = both, Sprague-Dawley, rat, plasma, im, 500 μg/kg
[22] = both, Sprague-Dawley, rat, plasma, iv, 20 μg/kg

CC(C)C[C@H](NC(=O)CNC(=O)[C@H](C)NC(=O)[C@H](CC(=O)O)NC(=O)[C@H](CC(=O)O)NC(=O)[C@H](C)NC(=O)[C@@H]1CCCN1C(=O)[C@H](CCCCN)NC(=O)CNC(=O)[C@@H]1CCCN1C(=O)[C@@H]1CCCN1C(=O)[C@@H]1CCCN1C(=O)[C@H](CCC(=O)O)NC(=O)CN)C(=O)N[C@H](C(=O)O)C(C)C [BPC157, Gly-Glu-Pro-Pro-Pro-Pro-Gly-Lys-Pro-Ala-Asp-Asp-Ala-Gly-Leu-Val]
half-life [1]: 18.5 min
half-life [2]: 19.6 ± 3.72 min
tolerability, serious toxic effects [3]: well tolerated and did not demonstrate any serious toxic effects
stability [4]: resistant to hydrolysis, enzyme digestion, and even gastric juice
half-life (in vivo [5]): 15.2 min
half-life (in vivo [6]; im): 20 ± 5.53 min
half-life (in vivo [6]; iv): 5.27 ± 2.25 min
dose proportionality (AUC0–t and Cmax vs dose) ([7]; beagle dogs, IM 6, 30, 150 μg/kg, linear regression): linear pharmacokinetic characteristics
elimination half-life of the prototype drug ([7]; beagle dogs, IV and IM, all doses, plasma): less than 30 min
detection of prototype drug in plasma 4 h after administration ([7]; beagle dogs, plasma, 4 h after administration): could not be detected
Cssav ([7]; beagle dogs, repeated intramuscular 30 μg/kg for seven consecutive days, Cssav = AUC0–t/τ, mean ± SD, n = 6): 0.108 ± 0.0177 ng/mL
Cssmin ([7]; beagle dogs, repeated intramuscular 30 μg/kg for seven consecutive days, Cssmin = (C-48h + C-24h + C0h)/3, mean ± SD, n = 6): 0.00285 ± 0.00698 ng/mL
time for plasma BPC157 to reach its peak ([7]; beagles, IM 6, 30, and 150 μg/kg): ≤ 9 min
AUC(0-inf) [7, 14]: 0.5 ng·h/mL
AUC(0-t) [7, 14]: 0.483 ng·h/mL
Cmax [7, 14]: 1.05 ± 0.429 ng/mL
MRT [7, 14]: 25.8 min
Tmax [7, 14]: 6.33 min
bioavailability [7, 14]: 45.3 ± 24.9%
AUC(0-inf) [7, 15]: 2.73 ng·h/mL
AUC(0-t) [7, 15]: 2.67 ng·h/mL
Cmax [7, 15]: 3.3 ± 0.508 ng/mL
MRT [7, 15]: 37 min
Tmax [7, 15]: 8.67 min
bioavailability [7, 15]: 47.6 ± 18.1%
AUC(0-inf) [7, 16]: 13.8 ng·h/mL
AUC(0-t) [7, 16]: 13.8 ng·h/mL
Cmax [7, 16]: 26.1 ± 7.82 ng/mL
MRT [7, 16]: 31.4 min
Tmax [7, 16]: 8.17 min
bioavailability [7, 16]: 50.6 ± 27%
AUC(0-inf) [7, 17]: 1.28 ng·h/mL
MRT [7, 17]: 2.49 min
clearance [7, 17]: 90.8 ± 40.1 mL/min/kg
Tmax ([7]; dog, in vivo, im): 10.5 min
Vd ([7]; dog, in vivo, iv, 6 ug/kg): 0.243 ± 0.162 L/kg
Cssav ([8]; SD rats, repeat intramuscular 100 μg/kg for seven consecutive days, Cssav = AUC0–t/τ, τ is the interval of administration): 0.290 ng/mL
Cssmin ([8]; SD rats, repeat intramuscular 100 μg/kg for seven consecutive days, Cssmin=(C-48h + C-24h + C0h)/3): 0 ng/mL
Tmax ([8]; SD rats, repeat intramuscular 100 μg/kg once a day for seven consecutive days, after last dose, plasma, LC-MS/MS, mean, n = 6): 3.00 min
Tmax ([8]; SD rats, single intramuscular 20 μg/kg, plasma, LC-MS/MS, mean, n = 6): 3 min
Tmax ([8]; SD rats, single intramuscular 100 μg/kg, plasma, LC-MS/MS, mean, n = 6): 3 min
Tmax ([8]; SD rats, single intramuscular 500 μg/kg, plasma, LC-MS/MS, mean, n = 6): 3 min
MRT [8, 18]: 0.727 min
Vss [8, 18]: 0.0364 L/kg
AUC(0-inf) [8, 19]: 1.25 ng·h/mL
AUC(0-t) [8, 19]: 1.25 ng·h/mL
Cmax [8, 19]: 12.3 ng/mL
MRT [8, 19]: 7.27 min
Tmax [8, 19]: 3 min
AUC(0-inf) [8, 20]: 4.83 ng·h/mL
AUC(0-t) [8, 20]: 4.82 ng·h/mL
Cmax [8, 20]: 48.9 ng/mL
MRT [8, 20]: 9.61 min
Tmax [8, 20]: 3 min
AUC(0-inf) [8, 21]: 32.2 ng·h/mL
AUC(0-t) [8, 21]: 32.2 ng·h/mL
Cmax [8, 21]: 141 ng/mL
MRT [8, 21]: 12.8 min
Tmax [8, 21]: 3 min
AUC(0-inf) [8, 22]: 6.67 ng·h/mL
AUC(0-t) [8, 22]: 6.65 ng·h/mL
clearance [8, 22]: 50.1 mL/min/kg
bioavailability ([8]; rat, im, 20 ug/kg): 18.8%
bioavailability ([8]; rat, im, 100 ug/kg): 14.5%
bioavailability ([8]; rat, im, 500 ug/kg): 19.4%
dose proportionality (AUC0–t and Cmax vs dose) ([8]; rats, IM 20, 100, 500 μg/kg, linear regression): linear pharmacokinetic characteristics
time for plasma BPC157 to reach its peak ([8]; rats, IM 20, 100, and 500 μg/kg): ≤ 9 min
elimination half-life of the prototype drug ([8]; rats, IV and IM, all doses, plasma): less than 30 min
detection of prototype drug in plasma 4 h after administration ([8]; rats, plasma, 4 h after administration): could not be detected

[3H]O[3H] [tritium water]
proportion of the bile sample radioactivity ([9]; female BDC rats): 91.2%
proportion of the total fecal radioactivity ([9]; female rats): 30.1%
proportion of the total radioactivity in urine ([9]; female rats): 69.5%
proportion of the bile sample radioactivity ([9]; male BDC rats): 91.0%
proportion of the total fecal radioactivity ([9]; male rats): 29.3%
proportion of the total radioactivity in urine ([9]; male rats): 75.3%

GEPPPPGKPADDAGLV
not cleaved (gastric juice): resistant to hydrolysis, enzyme digestion, and even gastric juice
fragment found [10]: [^3H]proline (M1)
fragment found [11]: M1(Proline) and M2 and M3 and M4 and M5 and M6
fragment found [12]: [^3H]proline (M1), major
fragment found [13]: [^3H]proline (M1), major, 0 to 8 h
